ChEMBL document CHEMBL3272295, “Drugs derived from cannabinoids. 5. delta6a,10a-Tetrahydrocannabinol and heterocyclic analogs containing aromatic side chains” (J Med Chem, 1976)
Active and inactive are the calls of the source. No cut-off for these calls is given here.

How the values were obtained:
[1] = Acute toxicity in po dosed mouse; assay type: organism-based; conditions: in vivo
Canis familiaris = test: Antianxiety activity in po dosed dog assessed as ataxia administered as single dose measured up to 24 hrs; assay type: functional; conditions: Canis lupus familiaris, read-out: MED
Rhesus monkey [2] = test: Antianxiety activity in po dosed rhesus monkey assessed as antiagressive behavior measured every hour post dosing; assay type: functional; conditions: Macaca mulatta, read-out: MED
Rattus norvegicus [3] = test: Antianxiety activity in Long-Evans rat assessed as reduction in motor activity at 1 mg/kg, po after 2 hrs relative to vehicle-treated control; assay type: functional; design: scale not given: the % may be the effect or the level left
Felis catus [4] = test: Hypnotic activity in cat assessed as increase in total sleep time at 0.5 mg/kg administered orally through diet measured for 12 hrs by EEG analysis; assay type: functional; conditions: route oral
Mus musculus [5] = test: Antianxiety activity in albino BALB/cJ mouse assessed as reduction in footshock-induced fighting behavior at 5 mg/kg, po after 30 to 90 mins; assay type: functional; design: scale not given: the % may be the effect or the level left
Rattus norvegicus [6] = test: Antipsychotic activity in rat assessed as reduction of methamphetamine-induced hyperactivity at 10 mg/kg, po administered prior to methamphetamine challenge relative to vehicle-treated control; assay type: functional; design: scale not given: the % may be the effect or the level left
Mus musculus [7] = test: Analgesic activity in po dosed mouse assessed as inhibition of acetic acid-induced writhing administered 30 mins prior to acetic acid challenge measured after 5 mins for 20 mins; assay type: functional
Rattus norvegicus [8] = test: Antipsychotic activity in rat assessed as reduction of methamphetamine-induced hyperactivity at 2.5 mg/kg, po administered prior to methamphetamine challenge relative to vehicle-treated control; assay type: functional; design: scale not given: the % may be the effect or the level left
Rattus norvegicus [9] = test: Analgesic activity in po dosed Sprague-Dawley rat after 15 to 90 mins by tail flick test; assay type: functional
Felis catus [10] = test: Hypnotic activity in cat assessed as increase in non-REM sleep time at 0.5 mg/kg administered orally through diet measured for 12 hrs by EEG analysis; assay type: functional; conditions: route oral
Rattus norvegicus [11] = test: Antianxiety activity in Long-Evans rat assessed as reduction in motor activity at 4 mg/kg, po after 2 hrs relative to vehicle-treated control; assay type: functional; design: scale not given: the % may be the effect or the level left
Rattus norvegicus [12] = test: Antihypertensive activity in spontaneously hypertensive rat model assessed as reduction in blood pressure at 10 mg/kg, po after 24 hrs; assay type: functional; design: scale not given: the % may be the effect or the level left
Mus musculus [13] = test: Analgesic activity in mouse assessed as inhibition of acetic acid-induced writhing at 40 mg/kg, po administered 30 mins prior to acetic acid challenge measured after 5 mins for 20 mins; assay type: functional
Rattus norvegicus [14] = test: Antianxiety activity in Long-Evans rat assessed as reduction in motor activity at 5 mg/kg, po after 2 hrs relative to vehicle-treated control; assay type: functional; design: scale not given: the % may be the effect or the level left
Rattus norvegicus [15] = species on record: Rattus norvegicus; test: animal or person; assay type: functional; conditions: Charles River, route oral
Description: Antidiarrheal activity in Charles River rat assessed as inhibition of castor oil-induced diarrhea by measuring protected animals at 0.5 mg/kg, po administered 1 hr prior to castor oil challenge measured after 1 hr relative to vehicle-treated control

Rattus norvegicus [16] = test: Antipsychotic activity in rat assessed as reduction of methamphetamine-induced hyperactivity at 5 mg/kg, po administered prior to methamphetamine challenge relative to vehicle-treated control; assay type: functional; design: scale not given: the % may be the effect or the level left
Rattus norvegicus [17] = test: Antihypertensive activity in spontaneously hypertensive rat model assessed as reduction in blood pressure at 10 mg/kg, po after 3 hrs; assay type: functional; design: scale not given: the % may be the effect or the level left
Mus musculus [18] = test: Antianxiety activity in albino BALB/cJ mouse assessed as reduction in footshock-induced fighting behavior at 10 mg/kg, po after 30 to 90 mins; assay type: functional; design: scale not given: the % may be the effect or the level left
Mus musculus [19] = test: Antidepressant activity in po dosed mouse assessed as potentiation of DOPA-induced effect administered 4 hrs prior to DOPA challenge; assay type: functional; conditions: read-out: MED
Rattus norvegicus [20] = test: Antianxiety activity in Long-Evans rat assessed as reduction in motor activity at 10 mg/kg, po after 2 hrs relative to vehicle-treated control; assay type: functional; design: scale not given: the % may be the effect or the level left
Rhesus monkey [21] = test: Antianxiety activity in rhesus monkey assessed as antiagressive behavior at 10 mg/kg, po measured every hour post dosing; assay type: functional, organism-based; design: dose 10 mg/kg; conditions: Macaca mulatta
Rattus norvegicus [22] = test: Antihypertensive activity in spontaneously hypertensive rat model assessed as reduction in blood pressure at 30 mg/kg, po after 24 hrs; assay type: functional; design: scale not given: the % may be the effect or the level left
Rattus norvegicus [23] = test: Antihypertensive activity in spontaneously hypertensive rat model assessed as reduction in blood pressure at 30 mg/kg, po after 3 hrs; assay type: functional; design: scale not given: the % may be the effect or the level left
Rattus norvegicus [24] = test: Antihypertensive activity in spontaneously hypertensive rat model assessed as reduction in blood pressure at 3 mg/kg, po after 3 hrs; assay type: functional; design: scale not given: the % may be the effect or the level left
Rattus norvegicus [25] = test: Antihypertensive activity in spontaneously hypertensive rat model assessed as reduction in blood pressure at 3 mg/kg, po after 24 hrs; assay type: functional; design: scale not given: the % may be the effect or the level left
Rattus norvegicus [26] = test: Antihypertensive activity in spontaneously hypertensive rat model assessed as reduction in blood pressure at 1 mg/kg, po after 24 hrs; assay type: functional; design: scale not given: the % may be the effect or the level left
Rattus norvegicus [27] = test: Antianxiety activity in Long-Evans rat assessed as reduction in motor activity at 20 mg/kg, po after 2 hrs relative to vehicle-treated control; assay type: functional; design: scale not given: the % may be the effect or the level left
Mus musculus [28] = test: Analgesic activity in mouse assessed as inhibition of acetic acid-induced writhing at 10 mg/kg, po administered 30 mins prior to acetic acid challenge measured after 5 mins for 20 mins; assay type: functional
Rattus norvegicus [29] = test: Increase in methamphetamine-induced hyperactivity in rat at 5 mg/kg, po administered prior to methamphetamine challenge relative to vehicle-treated control; assay type: functional
Rattus norvegicus [30] = test: Antihypertensive activity in spontaneously hypertensive rat model assessed as reduction in blood pressure at 1 mg/kg, po after 3 hrs; assay type: functional; design: scale not given: the % may be the effect or the level left

| SMILES | LD50 [1] | minimal effective dose (Canis familiaris) | minimal effective dose (Rhesus monkey [2]) | Activity (Mus musculus [5]) | Activity (Rattus norvegicus [12]) | inhibition in vivo at 40 mg/kg (Mus musculus [13]) | Activity (Rattus norvegicus [14]) | inhibition in vivo at 0.5 mg/kg (Rattus norvegicus [15]) | Activity (Rattus norvegicus [16]) | Activity (Rattus norvegicus [17]) | Activity (Mus musculus [18]) | Activity (Rattus norvegicus [20]) | further results |
| --- | --- | --- | --- | --- | --- | --- | --- | --- | --- | --- | --- | --- | --- |
| CC1CCC2=C(C1)c1c(OC(=O)CCCN3CCOCC3)cc(C(C)CCCc3ccc(F)cc3)cc1OC2(C)C.Cl (stereo not drawn) | ≥ 1000 mg/kg | 10 mg/kg | 10 mg/kg | 8% |  |  |  |  |  |  |  |  | Activity (Rattus norvegicus [3]): 68%; Time (Felis catus [4]): 16 min; Activity (Rattus norvegicus [6]): 95%; ED50 (Mus musculus [7]): 6 mg/kg; Activity (Rattus norvegicus [8]): 86%; ED50 (Rattus norvegicus [9]): 1.7 mg/kg; Time (Felis catus [10]): 39 min; Activity (Rattus norvegicus [11]): 93% |
| CC(CCCc1ccc(F)cc1)c1cc(O)c2c(c1)OC(C)(C)C1=C2CCC1 (stereo not drawn) | ≥ 1000 mg/kg | 10 mg/kg | 10 mg/kg |  | 30% | 22% | 41% | 20% | 58% | 3% | 47% |  |  |
| Br.CC(CCCc1ccc(F)cc1)c1cc(O)c2c(c1)OC(C)(C)C1=C2C2CCN1CC2 (stereo not drawn) | ≥ 1000 mg/kg | 1 mg/kg | 1 mg/kg | 23% |  | 32% | 23% | 10% | 4% |  |  | 46% | minimal effective dose (Mus musculus [19]): 20 mg/kg |
| CC1CCC2=C(C1)c1c(O)cc(C(C)CCCN(C)C)cc1OC2(C)C (stereo not drawn) | ≥ 1000 mg/kg |  |  |  | 13% | 18% | 12% |  | 20% | 9% | 38% |  | Activity (Rhesus monkey [21]): inactive; Activity (Rattus norvegicus [22]): 6%; Activity (Rattus norvegicus [23]): 10% |
| CC1CCC2=C(C1)c1c(O)cc(C(C)C(C)CCCc3ccc(F)cc3)cc1OC2(C)C (stereo not drawn) | 500 mg/kg | 10 mg/kg |  |  |  |  |  |  |  |  | 16% | 36% | Activity (Rattus norvegicus [24]): 33%; Activity (Rattus norvegicus [25]): 5%; Activity (Rattus norvegicus [26]): 0%; Activity (Rattus norvegicus [27]): 62%; inhibition in vivo at 10 mg/kg (Mus musculus [28]): 32%; Activity (Rattus norvegicus [29]): 23%; Activity (Rattus norvegicus [30]): 9% |
